The source of these data is ChEMBL document CHEMBL1152056, “Targeting radiosensitizers to DNA by minor groove binding: nitroarenes based on netropsin and distamycin” (1993).

One experiment has as its system Nucleic Acid. Briefly: Concentration required for 50% decrease in fluorescence of ethidium bromide bound to calf thymus DNA. at 600 nm. The format is nucleic-acid assay. The settings on record: Bos taurus.
The nature of experiment [1]: Concentration required to kill 50 % of the cells after ca. 7 days aerobic exposure. It is filed as functional, Cricetulus griseus.
A short description of experiment [2]: Enhancement ratio was calculated to determine the radiosensitization as the ratio of radiation dose required to kill similar cells in anoxia to those with the compound; at a concentration of 0.05 mM. The format is functional, Cricetulus griseus.
Experiment [3] in a line: Enhancement ratio was calculated to determine the radiosensitization as the ratio of radiation dose required to kill similar cells in anoxia to those with the compound; at a concentration of 0.5 mM. The format is functional, Cricetulus griseus.
Experiment [4] can be described thus: Cellular uptake was calculated as the ratio of intracellular and extracellular concentration in V79 hamster cells. The format is functional, Cricetulus griseus.
Experiment [5] can be described thus: Concentration required to kill 50 % of the cells after ca. 7 days aerobic exposure; value ranges from 0.025-0.05. It is filed as functional, Cricetulus griseus.
Experiment [6] in a line: Enhancement ratio was calculated to determine the radiosensitization as the ratio of radiation dose required to kill similar cells in anoxia to those with the compound; at a concentration of 1.0 mM. The format is functional, Cricetulus griseus.
Experiment [7] is described as follows: Enhancement ratio was calculated to determine the radiosensitization as the ratio of radiation dose required to kill similar cells in anoxia to those with the compound; at a concentration of ~5 mM. It is filed as functional, Cricetulus griseus.
Experiment [8] is described as follows: Concentration required to kill 50 % of the cells after ca. 7 days exposure. It is filed as functional, Cricetulus griseus.

In the experiment on Nucleic Acid, `Cn1cc(NC(=O)c2cc(NC(=O)CNC(=N)N)cn2C)cc1C(=O)NCCC(=N)N` yielded a C50 of 1.1 µM.

`NC(=O)N/N=C/c1ccc([N+](=O)[O-])o1` [NITROFURAZONE]: the C50 with Nucleic Acid was greater than 1000 µM; in experiment [1], 0.13 mM. Also, the Ratio in [2] is 1.6.

For `Cl.Cn1cc(NC(=O)Cn2ccnc2[N+](=O)[O-])cc1C(=O)NCCC(=N)N`, the C50 was 6.8 µM in the experiment on Nucleic Acid and greater than 0.25 mM in experiment [1]. In [3], the Ratio is 1.04.

In the case of `Cl.Cn1cc(NC(=O)c2cc(NC(=O)Cn3ccnc3[N+](=O)[O-])cn2C)cc1C(=O)NCCC(=N)N`, the “Ratio (Ci/Ce)” value in experiment [4] is 3.6. Besides, the C50 with Nucleic Acid was 16 µM; in experiment [1], greater than 0.25 mM. The Ratio in [3] is on record as 1.04.

`Cn1cc(NC(=O)c2cc(NC(=O)c3cc(NC=O)cn3C)cn2C)cc1C(=O)NCCC(=N)N` registered a C50 in the experiment on Nucleic Acid of 1.3 µM.

For `Cl.Cn1cc(NC(=O)c2ccc([N+](=O)[O-])o2)cc1C(=O)NCCC(=N)N`, the results for the C50 (in the experiment on Nucleic Acid; in experiment [5]) were 26 µM and 0.025 mM, respectively. Also, the Ratio in [2] was 1.3.

In the case of `O=C(Cn1ccnc1[N+](=O)[O-])NCCO` [ETANIDAZOLE], the Ratio in experiment [6] is given as 1.55. In addition, the “Ratio (Ci/Ce)” value in [4] is given as 0.4. The C50 in the experiment on Nucleic Acid turned out to be 3000 µM.

For the compound `Cc1ncc([N+](=O)[O-])n1CCO` [METRONIDAZOLE], the results for the C50 (in the experiment on Nucleic Acid; in experiment [1]) were 3200 µM and 6.5 mM, respectively. Besides, the Ratio in experiment [7] is 1.6.

As for `COCC(O)Cn1ccnc1[N+](=O)[O-]` (stereo not drawn) [MISONIDAZOLE], the “Ratio (Ci/Ce)” value in experiment [4] is given as 0.7. Moreover, the C50 with Nucleic Acid stood at 2700 µM; in experiment [1], 1.3 mM.

In the case of `Cl.Cn1cc(NC(=O)c2cc(NC(=O)c3ccc([N+](=O)[O-])o3)cn2C)cc1C(=O)NCCC(=N)N`, the “Ratio (Ci/Ce)” value in experiment [4] is 9.4. For the same compound, the figures for the C50 (in the experiment with Nucleic Acid; in experiment [8]) were 4.8 µM and less than 0.01 mM, respectively. Also, the Ratio in experiment [3] is reported as 1.16.
